Where two headings read alike, the source gives them in different places.
Key:
[1] = Liver Microsomal Clearance Assay (mouse); assay type: in vitro ADME; conditions: extraction ratio, mouse liver microsomes, 1 μM compound
Protocol: (§1) The in vitro microsomal clearance assay is designed to assess potential risks associated with hepatic metabolic stability of compounds. The test compound (1 μM) was incubated with liver microsomes (0.5 mg/mL) from different species (mouse, rat, monkey, dog and human) and NADPH (1 mM) in 100 mM potassium phosphate buffer at 37° C. At specific reaction time points (0, 5, 10 and 30 minutes), reaction aliquots were removed and reactions were terminated by addition of ice cold acetonitrile containing mass spectrometry internal standard. The samples were centrifuged and the supernatants were analyzed by LC-MS/MS. In vitro metabolic half-life (t1/2, min) and intrinsic clearance (CLint, μL/min/mg) are based on the rate and extent of metabolism of the test compound as determined by the disappearance of the parent compound from the reaction mixture. These values may be scaled to predict hepatic metabolic clearance rate (CLh, mL/min/kg) and extraction ratio (ER, expressed as a ratio of the predicted hepatic metabolic clearance to hepatic blood flow in that species). In general, compounds with high predictedCLint or ER in vitro are considered to be at high risk for exposure-limiting metabolism in vivo.

[2] = tested on: A375 melanoma cell line (B-Raf V600E); experiment: A375 Cellular Proliferation Assay (A375 CP); assay type: cell-based; conditions: Homo sapiens
Protocol: A375-luc cells engineered to express luciferase are plated to 384-well white clear bottom plates as 1,500 cells/50 μl/well in DMEM containing 10% FBS. Compounds of the invention dissolved in 100% DMSO at appropriate concentrations are transferred to the cells by a robotic Pin Tool (100 nl). The cells are incubated for 2 days at […], then 25 μl of BrightGlo™ is added to each well and the plates are read by luminescence.

[3] = Liver Microsomal Clearance Assay (human); assay type: in vitro ADME; conditions: extraction ratio, human liver microsomes, 1 μM compound
Protocol: as §1

SW620 cells = experiment: SW620 Cell Viability Assay (Cell Titer Glo); assay type: cell-based; conditions: 10 to 0.002 μM, no MEK inhibitor
Protocol: The present invention also includes combinations of the BRaf inhibitors disclosed in this invention with other agents. In particular, the present invention provides for combinations with MEK1/2 inhibitors. FIG. 1 illustrates that the addition of a MEK small molecule inhibitor can reverse the induced ERK signaling, cell growth and transformation caused by a Raf small molecule inhibitor.
SW620 cells were seeded in 1640 RPMI+10% FBS at a density of 1500 cells per 96-well in black walled, clear bottom tissue culture treated plates. Test compounds were serially diluted in DMSO then added to the cells (final DMSO concentration of 0.1%) and incubated at 37° C. and 5% CO2 for 4 days. To measure cell viability, cell plates were brought to room temperature, culture media was removed, and 200 μl of Cell Titer-Glo reagent (Promega, kit components mixed as per the manufacturer's protocol then diluted 1:2 with growth media) was added to each well. Plates were shaken for 5 minutes, then incubated at room temperature for 5 minutes, and the luminescence was measured (Trilux, Perkin Elmer).

p38α MAP Kinase = experiment: A549 p38α MAP Kinase Bright-Glo Reporter Gene Assay; assay type: cell-based; conditions: Homo sapiens, IL-1 beta stimulated, IL-8 promoter luciferase reporter, read-out: A549 p38 RGA IC50
Protocol: A549 cells were stably-transfected with the IL-8 promoter driven reporter, pGL3-IL8-Luc. The cells were plated at 4×10^5/ml into 384-well solid white plates (40 ul/well, 5% CD-FBS, 1×P/S, DMEM) and were incubated overnight (18-20 hours) at 37° C. Test compounds were serially diluted in DMSO, then 50 nl of test solution was added to the incubation (final DMSO concentration of 0.1%). After incubating with test compound for 30 min, cells were stimulated with 1 ng/ml IL-1 beta (10 ul of 5 ng/ml solution per well). Bright-Glo (25 ul/well) was added to measure luciferase expression after 7-8 hours of stimulation.

[4] = A-375, 48 h, A375-luc cells, 2 days, read-out: A375 CP IC50
[5] = A-375, as repeated in p38 table, read-out: A375 CP IC50

Structure (SMILES) | ER Mouse [1] | IC50 [2, 4] | ER Human [3] | IC50 [2, 5] | IC50 ([2]; A-375, read-out: A375 IC50) | IC50 (p38α MAP Kinase) | effect on cellular proliferation (negative inhibition in FIG. 1) (SW620 cells)
COC(=O)N[C@@H](C)CNc1nccc(-c2cn(C(C)C)nc2-c2cccc(NS(C)(=O)=O)c2F)n1 [Compound 4, methyl N-[(2S)-1-({4-[3-(2-fluoro-3-methanesulfonamidophenyl)-1-(propan-2-yl)-1H-pyrazol-4-yl]pyrimidin-2-yl}amino)propan-2-yl]carbamate] | 0.40 | 0.033 µM | <0.31 | – | – | – | –
CCCS(=O)(=O)Nc1ccc(F)c(-c2nn(C(C)C)cc2-c2ccnc(NC[C@H](C)NC(=O)OC)n2)c1F [Compound 7, Methyl N-[(2S)-1-[(4-{3-[2,6-difluoro-3-(propane-1-sulfonamido)phenyl]-1-(propan-2-yl)-1H-pyrazol-4-yl}pyrimidin-2-yl)amino]propan-2-yl]carbamate] | 0.91 | 0.008 µM | 0.65 | – | – | – | –

Further lines, with some results ahead:

ER Mouse [1] | IC50 [2, 4] | ER Human [3] | IC50 [2, 5] | IC50 ([2]; A-375, read-out: A375 IC50) | IC50 (p38α MAP Kinase) | Structure (SMILES) | effect on cellular proliferation (negative inhibition in FIG. 1) (SW620 cells)
0.48 | 0.002 µM | <0.21 | 0.002 µM | 0.002 µM | 2.2 µM | COC(=O)N[C@@H](C)CNc1nccc(-c2cn(C(C)C)nc2-c2cc(Cl)cc(NS(C)(=O)=O)c2F)n1 [Compound 9, Methyl N-[(2S)-1-({4-[3-(5-chloro-2-fluoro-3-methanesulfonamidophenyl)-1-(propan-2-yl)-1H-pyrazol-4-yl]pyrimidin-2-yl}amino)propan-2-yl]carbamate] | induction in cellular proliferation
– | 0.076 µM | – | 0.076 µM | 0.076 µM | 17 µM | CNc1nccc(-c2cn(C(C)C)nc2-c2cc(Cl)cc(NS(C)(=O)=O)c2F)n1 [Compound 29, N-(5-chloro-2-fluoro-3-{4-[2-(methylamino)pyrimidin-4-yl]-1-(propan-2-yl)-1H-pyrazol-3-yl}phenyl)methanesulfonamide] | –
– | 0.031 µM | – | 0.031 µM | – | 0.69 µM | COC(=O)NC[C@H](C)Nc1nccc(-c2cn(C(C)C)nc2-c2cc(Cl)cc(NS(C)(=O)=O)c2F)n1 [Compound 32, Methyl N-[(2S)-2-({4-[3-(5-chloro-2-fluoro-3-methanesulfonamidophenyl)-1-(propan-2-yl)-1H-pyrazol-4-yl]pyrimidin-2-yl}amino)propyl]carbamate] | –
